From patent publication US20120135995A1, “FUNGICIDAL DIPHENYL-SUBSTITUTED PYRIDAZINES” (E.I. Dupont de Nemours and Company, priority 2009, published 2012)
Marks after values point to notes of the source that are not given here.

Tests used:
Format in all cases: in vivo
[1] = test system: Puccinia recondita f. sp. tritici; test: Test E1: wheat seedlings inoculated with Puccinia recondita f. sp. tritici (wheat leaf rust), sprayed afterwards, visual disease rating; conditions: sprayed after inoculation; for pest or weed control at 200 ppm / pest or weed control at 40 ppm: Puccinia recondita
Description: (§1) General protocol for preparing test suspensions for Tests A-F: the test compounds were first dissolved in acetone in an amount equal to 3% of the final volume and then suspended at the desired concentration (in ppm) in acetone and purified water (50/50 mix) containing 250 ppm of the surfactant Trem® 014 (polyhydric alcohol esters). The resulting test suspensions were then used in Tests A-F. Spraying a 200 ppm test suspension to the point of run-off on the test plants was the equivalent of a rate of 500 g/ha. An asterisk “*” next to the rating value indicates a 40 ppm test suspension.
Wheat seedlings were inoculated with a spore suspension of Puccinia recondita f. sp. tritici (the causal agent of wheat leaf rust) and incubated in a saturated atmosphere at 20° C. for 24 h, and then moved to a growth chamber at 20° C. for 2 days. At the end of this time the test suspension was sprayed to the point of run-off on the wheat seedlings, and then the seedlings were moved to a growth chamber at 20° C. for 6 days, after which time visual disease ratings were made.
(§2) Results for Tests A-F are given in Table A. In the Table, a rating of 100 indicates 100% disease control and a rating of 0 indicates no disease control (relative to the controls). A dash (-) indicates no test results. All results are for 200 ppm except where followed by “*”, which indicates 40 ppm.

Alternaria solani = test: Test B: tomato seedlings sprayed, next day inoculated with Alternaria solani (tomato early blight), visual disease rating; conditions: sprayed day before inoculation; for pest or weed control at 200 ppm / pest or weed control at 40 ppm: Alternaria solani
Description: as §1
(§3) The test suspension was sprayed to the point of run-off on tomato seedlings. The following day the seedlings were inoculated with a spore suspension of Alternaria solani (the causal agent of tomato early blight) and incubated in a saturated atmosphere at 27° C. for 48 h, and then moved to a growth chamber at 20° C. for 5 days, after which time visual disease ratings were made.
as §2

Botrytis cinerea = test: Test A: tomato seedlings sprayed, next day inoculated with Botrytis cinerea (tomato Botrytis), visual disease rating; conditions: sprayed day before inoculation; for pest or weed control at 200 ppm / pest or weed control at 40 ppm: Botrytis cinerea
Description: as §1
as §3, with “Botrytis cinerea” for “Alternaria solani”, “Botrytis)” for “early blight)”, “in” for “in a”, “20°” for “27°”, “24°” for “20°”, “3” for “5”
as §2

Erysiphe graminis = test: Test F: wheat seedlings sprayed, next day inoculated with Erysiphe graminis (wheat powdery mildew), visual disease rating; conditions: sprayed day before inoculation; for pest or weed control at 200 ppm / pest or weed control at 40 ppm: Blumeria graminis
Description: as §1
The test suspension was sprayed to the point of run-off on wheat seedlings. The following day the seedlings were inoculated with a spore dust of Erysiphe graminis, (the causal agent of wheat powdery mildew) and incubated in a growth chamber at 20° C. for 8 days, after which time visual disease ratings were made.
as §2

Septoria tritici = test: Test D: wheat seedlings sprayed, next day inoculated with Septoria tritici (wheat leaf blotch), visual disease rating; conditions: sprayed day before inoculation; for pest or weed control at 200 ppm / pest or weed control at 40 ppm: Zymoseptoria tritici
Description: as §1
as §3, with “wheat” for “tomato”, “Septoria tritici” for “Alternaria solani”, “wheat leaf blotch)” for “tomato early blight)”, “in” for “in a”, “24°” for “27°”, “19” for “5”
as §2

Septoria nodorum = test: Test C: wheat seedlings sprayed, next day inoculated with Septoria nodorum (wheat glume blotch), visual disease rating; conditions: sprayed day before inoculation; for pest or weed control at 200 ppm / pest or weed control at 40 ppm: Parastagonospora nodorum
Description: as §1
as §3, with “wheat” for “tomato”, “Septoria nodorum” for “Alternaria solani”, “wheat glume blotch)” for “tomato early blight)”, “24°” for “27°”, “6” for “5”
as §2

[2] = test system: Puccinia recondita f. sp. tritici; test: Test E2: wheat seedlings sprayed, next day inoculated with Puccinia recondita f. sp. tritici (wheat leaf rust), visual disease rating; conditions: sprayed day before inoculation; for pest or weed control at 200 ppm / pest or weed control at 40 ppm: Puccinia recondita
Description: as §1
The test suspension was sprayed to the point of run-off on wheat seedlings. The following day the seedlings were inoculated with a spore suspension of Puccinia recondita f. sp. tritici (the causal agent of wheat leaf rust) and incubated in a saturated atmosphere at 20° C. for 24 h, and then moved to a growth chamber at 20° C. for 7 days, after which time visual disease ratings were made.
as §2

SMILES | Test E1 rating (disease control) ([1]; 200 ppm test suspension) [%] | Test B rating (disease control) (Alternaria solani; 200 ppm test suspension) [%] | Test A rating (disease control) (Botrytis cinerea; 200 ppm test suspension) [%] | Test F rating (disease control) (Erysiphe graminis; 200 ppm test suspension) [%] | Test D rating (disease control) (Septoria tritici; 200 ppm test suspension) [%] | Test C rating (disease control) (Septoria nodorum; 200 ppm test suspension) [%] | Test E2 rating (disease control) ([2]; 200 ppm test suspension) [%] | also measured
COc1cc(OC)cc(-c2cnnc(Cl)c2-c2c(F)cc(F)cc2F)c1 [Compound 5, 3-chloro-5-(3,5-dimethoxyphenyl)-4-(2,4,6-trifluorophenyl)pyridazine] | – | – | – | – | – | – | – | pest or weed control at 200 ppm ([1]; 200 ppm test suspension): 99%; pest or weed control at 200 ppm (Alternaria solani; 200 ppm test suspension): 100%; pest or weed control at 200 ppm (Botrytis cinerea; 200 ppm test suspension): 99%; pest or weed control at 200 ppm (Erysiphe graminis; 200 ppm test suspension): 100%; pest or weed control at 200 ppm (Septoria tritici; 200 ppm test suspension): 98%; pest or weed control at 200 ppm (Septoria nodorum; 200 ppm test suspension): 100%; pest or weed control at 200 ppm ([2]; 200 ppm test suspension): 100%
COc1ccc(-c2c(C)nnc(C(C)=O)c2-c2cc(OC)cc(OC)c2)cc1 [Compound 14] | 16 | 0 | 99 | 84 | 99 | 0 | 95 | –
COc1cc(OC)cc(-c2c(C(C)C)nnc(Cl)c2-c2c(F)cc(F)cc2F)c1 [Compound 16] | 100 | 99 | 99 | 100 | 99 | 92 | 100 | –
COc1cc(OC)cc(-c2c(C(C)C)nnc(C)c2-c2c(F)cc(F)cc2F)c1 [Compound 18] | 100 | 99 | 100 | 100 | 99 | 82 | 100 | –
COc1ccc(-c2c(C)nnc(C(C)(C)O)c2-c2cc(OC)cc(OC)c2)cc1 [Compound 19] | – | – | – | – | – | – | – | Test E1 rating (disease control) ([1]; 40 ppm test suspension (*)): 0* %; Test B rating (disease control) (Alternaria solani; 40 ppm test suspension (*)): 99* %; Test A rating (disease control) (Botrytis cinerea; 40 ppm test suspension (*)): 84* %; Test F rating (disease control) (Erysiphe graminis; 40 ppm test suspension (*)): 27* %; Test D rating (disease control) (Septoria tritici; 40 ppm test suspension (*)): 97* %; Test C rating (disease control) (Septoria nodorum; 40 ppm test suspension (*)): 0* %; Test E2 rating (disease control) ([2]; 40 ppm test suspension (*)): 96* %
COc1cc(OC)cc(-c2c(C(C)=O)nnc(C)c2-c2c(F)cc(F)cc2F)c1 [Compound 20, 1-[4-(3,5-dimethoxyphenyl)-6-methyl-5-(2,4,6-trifluorophenyl)-3-pyridazinyl]ethanone] | – | – | – | – | – | – | – | pest or weed control at 40 ppm ([1]; 40 ppm test suspension (*)): 41%; pest or weed control at 40 ppm (Alternaria solani; 40 ppm test suspension (*)): 26%; pest or weed control at 40 ppm (Botrytis cinerea; 40 ppm test suspension (*)): 99%; pest or weed control at 40 ppm (Erysiphe graminis; 40 ppm test suspension (*)): 98%; pest or weed control at 40 ppm (Septoria tritici; 40 ppm test suspension (*)): 96%; pest or weed control at 40 ppm (Septoria nodorum; 40 ppm test suspension (*)): 0%; pest or weed control at 40 ppm ([2]; 40 ppm test suspension (*)): 99%
COc1cc(OC)cc(-c2c(C)nnc(Cl)c2-c2c(F)cccc2F)c1 [Compound 24, 3-chloro-4-(2,6-difluorophenyl)-5-(3,5-dimethoxyphenyl)-6-methylpyridazine] | – | – | – | – | – | – | – | pest or weed control at 40 ppm ([1]; 40 ppm test suspension (*)): 26%; pest or weed control at 40 ppm (Alternaria solani; 40 ppm test suspension (*)): 26%; pest or weed control at 40 ppm (Botrytis cinerea; 40 ppm test suspension (*)): 100%; pest or weed control at 40 ppm (Erysiphe graminis; 40 ppm test suspension (*)): 98%; pest or weed control at 40 ppm (Septoria tritici; 40 ppm test suspension (*)): 100%; pest or weed control at 40 ppm (Septoria nodorum; 40 ppm test suspension (*)): 55%; pest or weed control at 40 ppm ([2]; 40 ppm test suspension (*)): 100%
COc1cc(OC)cc(-c2c(CCl)nnc(Cl)c2-c2c(F)cccc2F)c1 [Compound 26, 3-chloro-6-(chloromethyl)-4-(2,6-difluorophenyl)-5-(3,5-dimethoxyphenyl)-pyridazine] | – | – | – | – | – | – | – | pest or weed control at 40 ppm ([1]; 40 ppm test suspension (*)): 0%; pest or weed control at 40 ppm (Alternaria solani; 40 ppm test suspension (*)): 0%; pest or weed control at 40 ppm (Botrytis cinerea; 40 ppm test suspension (*)): 99%; pest or weed control at 40 ppm (Erysiphe graminis; 40 ppm test suspension (*)): 0%; pest or weed control at 40 ppm (Septoria tritici; 40 ppm test suspension (*)): 99%; pest or weed control at 40 ppm (Septoria nodorum; 40 ppm test suspension (*)): 0%; pest or weed control at 40 ppm ([2]; 40 ppm test suspension (*)): 97%
COc1cc(OC)cc(-c2c(CC#N)nnc(Cl)c2-c2c(F)cccc2F)c1 [Compound 27, 6-chloro-5-(2,6-difluorophenyl)-4-(3,5-dimethoxyphenyl)-3-pyridazine-acetonitrile] | – | – | – | – | – | – | – | pest or weed control at 200 ppm ([1]; 200 ppm test suspension): 0%; pest or weed control at 200 ppm (Alternaria solani; 200 ppm test suspension): 99%; pest or weed control at 200 ppm (Botrytis cinerea; 200 ppm test suspension): 100%; pest or weed control at 200 ppm (Erysiphe graminis; 200 ppm test suspension): 98%; pest or weed control at 200 ppm (Septoria tritici; 200 ppm test suspension): 100%; pest or weed control at 200 ppm (Septoria nodorum; 200 ppm test suspension): 100%; pest or weed control at 200 ppm ([2]; 200 ppm test suspension): 100%
COc1cc(OC)cc(-c2c(C)nnc(Cl)c2-c2ccc(F)cc2F)c1 [Compound 32] | 0 | 99 | 99 | 89 | 99 | 78 | 99 | –
COc1cc(OC)cc(-c2c(CC#N)nnc(C)c2-c2c(F)cccc2F)c1 [Compound 35] | 46 | 99 | 98 | 99 | 100 | 99 | 100 | –
COc1cc(OC)c(Cl)c(-c2c(C)nnc(F)c2-c2c(F)cccc2F)c1 [Compound 36] | 100 | 100 | 99 | 100 | 100 | 60 | 100 | –
COc1cc(OC)cc(-c2c(C)nnc(F)c2-c2c(F)cccc2Cl)c1 [Compound 47] | 100 | 100 | – | 99 | – | 99 | 99 | –
COc1cc(OC)cc(-c2c(C)nnc(Cl)c2-c2ccc(F)cc2Cl)c1 [Compound 48] | 0 | 100 | – | 97 | – | 0 | 99 | –
COc1cc(OC)c(Cl)c(-c2c(C)nnc(C)c2-c2ccc(F)cc2F)c1 [Compound 49] | 100 | 99 | – | 100 | – | 99 | 100 | –
COc1cc(-c2c(C)nnc(C)c2-c2ccc(F)cc2F)cc(OC)c1Cl [Compound 50] | 100 | 100 | – | 100 | – | 100 | 100 | –
COc1cc(OC)c(Cl)c(-c2c(C)nnc(F)c2-c2ccc(F)cc2F)c1 [Compound 51] | 0 | 100 | 99 | 99 | – | 0 | 100 | –
COc1cc(OC)cc(-c2c(C)nnc(C)c2-c2ccc(F)cc2Cl)c1 [Compound 52] | 9 | 94 | 99 | 99 | – | 87 | 100 | –
COc1cc(OC)c(Cl)c(-c2c(C)nnc(Cl)c2-c2ccc(F)cc2Cl)c1 [Compound 53] | 98 | 99 | 99 | 100 | – | 98 | 100 | –
